The values that follow come from US8378104B2 (OSI Pharmaceuticals, LLC, priority 2010, dated 2013).

Structures can show the parent of a compound that is named as a salt.

The first experiment has as its target T1, TAK1-TAB1 fusion protein (Homo sapiens, UniProt O43318).
T1 construct: purchased Carna
T1 sequence (O43318 with tags, fused parts or gaps limits assumed): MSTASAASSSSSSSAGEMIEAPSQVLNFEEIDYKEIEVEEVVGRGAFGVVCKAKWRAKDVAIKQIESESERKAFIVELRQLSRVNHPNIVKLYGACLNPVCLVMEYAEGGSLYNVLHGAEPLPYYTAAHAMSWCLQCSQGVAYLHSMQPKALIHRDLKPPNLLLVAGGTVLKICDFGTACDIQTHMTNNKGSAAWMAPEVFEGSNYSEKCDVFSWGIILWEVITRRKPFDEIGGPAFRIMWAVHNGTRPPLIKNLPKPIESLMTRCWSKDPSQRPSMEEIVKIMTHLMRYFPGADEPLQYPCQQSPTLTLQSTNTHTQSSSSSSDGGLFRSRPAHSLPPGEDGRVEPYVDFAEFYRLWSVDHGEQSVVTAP
The experiment can be described thus: TAK1 biochemical assay (AlphaScreen, GST-MAP2K7 substrate).
Conditions: not given
In general terms: Bead proximity is the source of the signal in Alpha formats.
One may read the IC50 as the concentration needed to halve the response being measured. On to `Cc1nn(C)c(C)c1-c1cnc(N)c2oc(-c3csc4cnccc34)cc12` [Example 294, 2-thieno[2,3-c]pyridin-3-yl-4-(1,3,5-trimethyl-1H-pyrazol-4-yl)-furo[2,3-c]pyridin-7-ylamine], for which the IC50 is greater than 10000 nM.
The same measure, in the same setting: with `COc1nn(C)cc1-c1cnc(N)c2oc(-c3csc4cnccc34)cc12` [Example 343, 4-(3-methoxy-1-methyl-1H-pyrazol-4-yl)-2-thieno[2,3-c]pyridin-3-yl-furo[2,3-c]pyridin-7-ylamine] the figure was 100 to 1000 nM.

Still in this experiment, the particulars now being: TAK1-TAB1 fusion protein, GST-MAP2K7 substrate; read-out: mean TAK1 IC50 (Col. A).
As to `Nc1ncc(-c2ccsc2)c2cc(-c3csc4cnccc34)oc12` [Example 391, 2-(thieno[2,3-c]pyridin-3-yl)-4-(thiophen-3-yl)furo[2,3-c]pyridin-7-amine trifluoroacetate], the 50% inhibitory concentration (IC50) was 1000 to 10000 nM.
In the case of `Cc1nc(-c2cnc(N)c3oc(-c4csc5cnccc45)cc23)cs1` [Example 390, 4-(2-methyl-1,3-thiazol-4-yl)-2-(thieno[2,3-c]pyridin-3-yl)furo[2,3-c]pyridin-7-amine trifluoroacetate], the IC50 lay within 1000 to 10000 nM.
On the same count and under the same terms, with `Nc1ncc(-c2cnn(CCO)c2)c2cc(-c3cccc4cnccc34)oc12` [Example 67, 2-{4-[7-amino-2-(isoquinolin-5-yl)furo[2,3-c]pyridin-4-yl]-1H-pyrazol-1-yl}ethanol] the figure was 1000 to 10000 nM.
Same read-out and setting: with `Nc1ncc(-c2ccc(C(=O)O)s2)c2cc(-c3csc4cnccc34)oc12` [Example 381, 5-(7-amino-2-thieno[2,3-c]pyridin-3-yl-furo[2,3-c]pyridin-4-yl)-thiophene-2-carboxylic acid] the figure was 1000 to 10000 nM; with `Nc1ncc(-c2cnn(C3CCNCC3)c2)c2c(Cl)c(-c3ccc4[nH]ncc4c3)oc12` [Example 399, 3-chloro-2-(1H-indazol-5-yl)-4-[1-(piperidin-4-yl)-1H-pyrazol-4-yl]furo[2,3-c]pyridin-7-amine hydrochloride], 1000 to 10000 nM; with `Nc1ncc(-c2cnn(C3CCNCC3)c2)c2cc(-c3cccnc3)oc12` [Example 26, 4-[1-(piperidin-4-yl)-1H-pyrazol-4-yl]-2-(yridine-3-yl)furo[2,3-c]pyridine-7-amine], 1000 to 10000 nM.
Same read-out and setting: with `CC(=O)N1CCC(n2cc(-c3cnc(N)c4oc(-c5cccc(OCc6ccccn6)c5)cc34)cn2)CC1` [Example 199, 1-[4-(4-{7-amino-2-[3-(Pyridin-2-ylmethoxy)phenyl]furo[2,3-c]pyridin-4-yl}-1H-pyrazol-1-yl)piperidin-1-yl]ethanone] the figure was 1000 to 10000 nM.
`CC(=O)N1CCC(n2cc(-c3cnc(N)c4oc(-c5cccc(C(=O)N6CCOCC6)c5)cc34)cn2)CC1` [Example 127, 1-[4-(4-{7-amino-2-[3-(morpholin-4-ylcarbonyl)phenyl]furo[2,3-c]pyridin-4-yl}-1H-pyrazol-1-yl)piperidin-1-yl]ethanone]: the IC50 was in the range of 1000 to 10000 nM.
Regarding `CC(=O)N1CCC(n2cc(-c3cnc(N)c4oc(-c5ccc6c(c5)OCCO6)cc34)cn2)CC1` [Example 157, 1-(4-{4-[7-amino-2-(2,3-dihydro-1,4-benzodioxin-6-yl)furo[2,3-c]pyridin-4-yl]-1H-pyrazol-1-yl}piperidin-1-yl)ethanone], the IC50 is 100 to 1000 nM.
Same read-out and setting: with `Cn1cc2c(-c3cc4c(-c5cnn([C@H]6CC[C@H](O)CC6)c5)cnc(N)c4o3)csc2cc1=O` [Example 259, 3-{7-amino-4-[1-(trans-4-hydroxycyclohexyl)-1H-pyrazol-4-yl]furo[2,3-c]pyridin-2-yl}-5-methylthieno[3,2-c]pyridin-6(5H)-one] the figure was greater than 10000 nM; with `Nc1ncc(-c2cnn(C3CCNCC3)c2)c2cc(-c3cccc4nn[nH]c34)oc12` [Example 46, 2-(1H-benzotriazol-7-yl)-4-[1-(piperidin-4-yl)-1H-pyrazol-4-yl]furo[2,3-c]pyridine-7-amine], 1000 to 10000 nM.
On to `COc1ccccc1NCCC(=O)N1CCC(n2cc(-c3cnc(N)c4oc(-c5cccc6cnsc56)cc34)cn2)CC1` [Example 336, 1-{4-[4-(7-amino-2-benzo[d]iso-thiazol-7-yl-furo[2,3-c]pyridin-4-yl)-pyrazol-1-yl]-piperidin-1-yl}-3-(2-methoxy-phenyl-amino)-propan-1-one], for which the IC50 is 100 to 1000 nM.
Same read-out and setting: the value for `Nc1ncc(-c2cnn([C@H]3CC[C@H](O)CC3)c2)c2cc(-c3ccc4c(c3)CNC4=O)oc12` [Example 404, 5-{7-amino-4-[1-(trans-4-hydroxycyclohexyl)-1H-pyrazol-4-yl]furo[2,3-c]pyridin-2-yl}-2,3-dihydro-1H-isoindol-1-one] was 1000 to 10000 nM; that for `COc1c(-c2cnc(N)c3oc(-c4csc5cnccc45)cc23)cnn1C` [Example 344, 4-(5-methoxy-1-methyl-1H-pyrazol-4-yl)-2-thieno[2,3-c]pyridin-3-yl-furo[2,3-c]pyridin-7-ylamine] was 100 to 1000 nM; that for `CS(=O)(=O)Nc1cccc(-c2cc3c(-c4cnn(C5CCNCC5)c4)cnc(N)c3o2)c1` [Example 23, N-(3-{7-amino-4-[1-(piperidin-4-yl)-1H-pyrazol-4-yl]furo[2,3-c]pyridine-2-yl}phenyl)methanesulfonamide] was 1000 to 10000 nM.
On the same count and under the same terms, the value for `Nc1ncc(-c2cnn(C3CCCCC3)c2)c2cc(-c3cccc4cnccc34)oc12` [Example 73, 4-(1-cyclohexyl-1H-pyrazol-4-yl)-2-(isoquinolin-5-yl)furo[2,3-c]pyridin-7-amine] was 1000 to 10000 nM; that for `Nc1ncc(-c2cnn(C3CCNCC3)c2)c2cc(-c3cc(C(F)(F)F)cc(C(F)(F)F)c3)oc12` [Example 1, 2-{(3,5-Bis-trifluoromethyl)phenyl}-4-(1-piperidin-4-yl-1H-pyrazol-4-yl)-furo[2,3-c]pyridin-7-ylamine] was 1000 to 10000 nM; that for `COCCOc1cccc(-c2cc3c(-c4cnn(C5CCN(C(C)=O)CC5)c4)cnc(N)c3o2)c1` [Example 200, 1-[4-(4-{7-amino-2-[3-(2-methoxyethoxy)phenyl]furo[2,3-c]pyridin-4-yl}-1H-pyrazol-1-yl)piperidin-1-yl]ethanone] was 1000 to 10000 nM.
Still for that read-out and setting: with `CC(=O)N1CCC(n2cc(-c3cnc(N)c4oc(-c5cccc(OCc6ccccc6Cl)c5)cc34)cn2)CC1` [Example 166, 1-{4-[4-(7-amino-2-{3-[(2-chlorobenzyl)oxy]phenyl}furo[2,3-c]pyridin-4-yl)-1H-pyrazol-1-yl]piperidin-1-yl}ethanone] the figure was greater than 10000 nM; with `CC(=O)N1CCC(n2cc(-c3cnc(N)c4oc(-c5ccc(Cl)c(C(=O)O)c5)cc34)cn2)CC1` [Example 110, 5-{4-[1-(1-acetylpiperidin-4-yl)-1H-pyrazol-4-yl]-7-aminofuro[2,3-c]pyridin-2-yl}-2-chlorobenzoic acid hydrochloride], 1000 to 10000 nM; with `Cc1c(-c2ccccc2)oc2c(N)ncc(-c3cnn(C4CCNCC4)c3)c12` [Example 9, methyl-2-phenyl-4-[1-(piperidin-4-yl)-1H-pyrazol-4-yl]furo[2,3-c]pyridin-7-amine hydrochloride], 1000 to 10000 nM.
On to `Cc1ncc(-c2cnc(N)c3oc(-c4csc5cnccc45)cc23)n1C` [Example 397, 4-(2,3-dimethyl-3H-imidazol-4-yl)-2-thieno[2,3-c]pyridin-3-yl-furo[2,3-c]pyridin-7-ylamine], for which the IC50 was 1000 to 10000 nM.
On the same count and under the same terms, the value for `Cc1csc(-c2cnc(N)c3oc(-c4csc5cnccc45)cc23)c1` [Example 375, 4-(4-methyl-thiophen-2-yl)-2-thieno[2,3-c]pyridin-3-yl-furo[2,3-c]pyridin-7-ylamine] was 1000 to 10000 nM.
Same read-out and setting: with `CC(=O)N1CCC(n2cc(-c3cnc(N)c4oc(-c5cccc(OCC6CCCCC6)c5)cc34)cn2)CC1` [Example 209, 1-[4-(4-{7-amino-2-[3-(cyclohexylmethoxy)phenyl]furo[2,3-c]pyridin-4-yl}-1H-pyrazol-1-yl)piperidin-1-yl]ethanone] the figure was greater than 10000 nM; with `CCC(=O)N1CCC(n2cc(-c3cnc(N)c4oc(-c5cccc6ccsc56)cc34)cn2)CC1` [Example 58, 1-(4-{4-[7-amino-2-(1-benzothiophen-7-yl)furo[2,3-c]pyridin-4-yl]-1H-pyrazol-1-yl}piperidin-1-yl)propan-1-one], 1000 to 10000 nM; with `CC1(C)OCC(Cn2cc(-c3cnc(N)c4oc(-c5cccc6cnccc56)cc34)cn2)O1` (centres unmarked) [Example 61, 4-{1-[(2,2-dimethyl-1,3-dioxolan-4-yl)methyl]-1H-pyrazol-4-yl}-2-(isoquinolin-5-yl)furo[2,3-c]pyridin-7-amine], 1000 to 10000 nM.
Same read-out and setting: the value for `Cc1c(-c2ccc3[nH]ncc3c2)oc2c(N)ncc(-c3cnn(C4CCNCC4)c3)c12` [Example 11, 2-(1H-indazol-5-yl)-3-methyl-4-[1-(piperidin-4-yl)-1H-pyrazol-4-yl]furo[2,3-c]pyridin-7-amine hydrochloride] was 1000 to 10000 nM; that for `Cc1n[nH]c(C)c1-c1cnc(N)c2oc(-c3csc4cnccc34)cc12` [Example 295, 4-(3,5-dimethyl-1H-pyrazol-4-yl)-2-thieno[2,3-c]pyridin-3-yl-furo[2,3-c]pyridin-7-ylamine] was 1000 to 10000 nM.
Consider `CC(=O)N1CCC(n2cc(-c3cnc(N)c4oc(-c5cccc(N)c5)cc34)cn2)CC1` [Example 130, 1-(4-{4-[7-amino-2-(3-aminophenyl)furo[2,3-c]pyridin-4-yl]-1H-pyrazol-1-yl}piperidin-1-yl)ethanone], for which the half-maximal inhibitory concentration (IC50) is 100 to 1000 nM.
On the same count and under the same terms, the value for `CC(=O)N1CCC(n2cc(-c3cnc(N)c4oc(-c5cccc(OCc6ccc(Cl)cc6)c5)cc34)cn2)CC1` [Example 206, 1-{4-[4-(7-amino-2-{3-[(4-chlorobenzyl)oxy]phenyl}furo[2,3-c]pyridin-4-yl)-1H-pyrazol-1-yl]piperidin-1-yl}ethanone] was greater than 10000 nM.
